Assay results: patent US20140094462A1, “SONIC HEDGEHOG MODULATORS” (priority 2009, published 2014)
Where two headings read alike, the source gives them in different places.

Key:
Gli1 = test: Primary keratinocyte cell culture, reduction in Gli mRNA; format: cell-based; settings: primary human keratinocytes
Procedure: To study the potency of the compounds of the invention in cells, select compounds of the invention were conducted with keratinocytes and the reduction in Gli mRNA was measured. Culturing of primary human keratinocytes was previously described (Nguyen, B. C., et al., Genes & Dev. 20:1028-1042 (2006)). The full thickness skin model, EpiDermFT System (MatTek, Ashland), consisted of normal, human-derived epidermal keratinocytes and normal, human-derived dermal fibroblasts which have been cultured to form a multilayered, highly differentiated model of the human dermis and epidermis. […] Gene expression is compared by quantifying mRNA levels by real time RT-PCR. For this, total RNA preparations […] are used in a reverse transcriptase reaction with a mix of oligonucleotide dT and random hexamer primers, followed by real time PCR with gene-specific primers (Gli1: Qiagen Quantitect PrimerAssay QT00060501; Gli2: Qiagen Quantitect PrimerAssay QT00018648), using an […] real time detection system (Bio-Rad) according to the manufacturer's recommendation, with SYBR Green (Bio-Rad) for detection.

ShhN protein = target: T1, ShhN protein (Homo sapiens, UniProt Q15465); test: Surface Plasmon Resonance (SPR) protein binding assay on immobilized ShhN
T1 construct: auto-cleavage of full length Shh into an active 20 kD N-terminal fragment (ShhN); purchased R&D Systems
T1 sequence (Q15465 24-197 limits assumed, species assumed): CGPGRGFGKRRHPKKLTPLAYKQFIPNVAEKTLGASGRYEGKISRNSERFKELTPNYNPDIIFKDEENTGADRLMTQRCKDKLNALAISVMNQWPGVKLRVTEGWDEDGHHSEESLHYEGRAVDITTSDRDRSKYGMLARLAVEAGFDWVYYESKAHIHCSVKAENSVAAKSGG
Outline: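 Binding to immobilized ShhN measured on a Biacore T100 at 25°C. Signals referenced against underivatized control surfaces, with zero-concentration blank cycles included. Solvent correction applied.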

C3H10T1/2 = test: Induction of osteogenic differentiation (modulation of osteoblast differentiation); settings: Mus musculus, C3H 10T1/2, read-out: IC50 (nM) C3H10T1/2
Source text: Using assays previously described in Dwyer et al., J. Biol. Chem. 282, (2007), 8959-68 and Nakamura et al., Biochm. […] Res. Comm., 237 (1997) 465-9, select compounds of the invention were screened for their ability to modulate osteoblast differentiation.

[1] = rcm bond, toluene
[2] = SPR, Biacore T100, ShhN immobilized on CM4 chip, 25° C., compound 0.78 μM-25 μM, read-out: KD

Row | Compound | IC50 (Gli1) | Kd (ShhN protein; [2]) | IC50 (C3H10T1/2) | Kd (ShhN protein) | ring closure, yield of all isomers ([1]; from C=CC[C@@H](C)C(=O)OC[C@H](NC(=O)[C@@H](C)CC=C)c1ccccc1, Grubbs II, 20.0 mM, 25.0 °C, 12.0 h) | ring closure, yield of all isomers ([1]; from C=CC[C@@H](C)C(=O)OC[C@H](NC(=O)C(F)(F)CC=C)c1ccccc1)
1 | O=C(CCc1ccc(Cl)cc1)N[C@@H]1C/C=C/CCC(=O)O[C@H](c2ccccc2)CNC1=O [CA] | > 100 µM | – | – | – | – | –
2 | CCN(CC)CCCNC(=O)C[C@@H]1C/C=C/CCC(=O)O[C@H](c2ccccc2)CNC1=O [EG] | 1 to 100 µM | > 100 µM | – | – | – | –
3 | CCOCCNC(=O)C[C@@H]1C/C=C/CCC(=O)O[C@H](c2ccccc2)CNC1=O [EH] | 1 to 100 µM | > 100 µM | – | – | – | –
4 | CCCCN1CCC(CNC(=O)C[C@@H]2C/C=C/CCC(=O)O[C@H](c3ccccc3)CNC2=O)CC1 [EI] | 1 to 100 µM | > 100 µM | – | – | – | –
5 | O=C(C[C@@H]1C/C=C/CCC(=O)O[C@H](c2ccccc2)CNC1=O)NC1CCCc2ccccc21 (some centres unmarked) [ER] | 0.1 to 1 µM | 1 to 100 µM | – | – | – | –
6 | O=C(C[C@@H]1C[C@H](O)[C@@H](O)CCC(=O)O[C@H](c2ccccc2)CNC1=O)NCc1ccc(Cl)cc1 [Example BZ, N-(4-chlorobenzyl)-2-((2R,6S,8S,9S)-8,9-dihydroxy-5,12-dioxo-2-phenyl-1-oxa-4-azacyclododecan-6-yl)acetamide] | 0.1 to 1 µM | 1 to 100 µM | – | – | – | –
7 | O=C1CC/C=C/CCC(=O)O[C@H](c2ccccc2)CN1 [Example CB, (R,E)-2-phenyl-1-oxa-4-azacyclododec-8-ene-5,12-dione] | 0.1 to 1 µM | > 100 µM | – | – | – | –
8 | O=C(C[C@@H]1C[C@@H]2O[C@H]2CCC(=O)N[C@H](c2ccccc2)COC1=O)NCc1ccc(Cl)cc1 [Example CD, N-(4-chlorobenzyl)-2-((1S,3S,7R,12S)-4,9-dioxo-7-phenyl-5,13-dioxa-8-azabicyclo[10.1.0]tridecan-3-yl)acetamide] | 1 to 100 µM | 1 to 100 µM | – | – | – | –
9 | O=C(C[C@@H]1C/C=C/CCC(=O)O[C@H](c2ccccc2)CNC1=O)NCc1ccc([N+](=O)[O-])cc1 [Example DQ, 2-((2R,6S,E)-5,12-dioxo-2-phenyl-1-oxa-4-azacyclododec-8-en-6-yl)-N-(4-nitrobenzyl)acetamide] | – | – | > 100000 nM | 1 to 100 µM | – | –
10 | O=C(C[C@@H]1C/C=C/CCC(=O)O[C@H](c2ccccc2)CNC1=O)NCC1CCOCC1 [Example EF, 2-((2R,6S,E)-5,12-dioxo-2-phenyl-1-oxa-4-azacyclododec-8-en-6-yl)-N-((tetrahydro-2H-pyran-4-yl)methyl)acetamide] | 1 to 100 µM | 1 to 100 µM | – | – | – | –
11 | C[C@@H]1C/C=C/C[C@@H](N)C(=O)N[C@H](c2ccccc2)COC1=O [Example M, (3R,6R,11R,E)-6-amino-11-methyl-3-phenyl-1-oxa-4-azacyclododec-8-ene-5,12-dione] | – | 0.1 to 1 µM | > 100000 nM | – | – | –
12 | CC(=O)N[C@@H]1C/C=C/C[C@@H](C)C(=O)OC[C@@H](c2ccccc2)NC1=O [Example N, N-((3R,6R,11R,E)-11-methyl-5,12-dioxo-3-phenyl-1-oxa-4-azacyclododec-8-en-6-yl)acetamide] | – | 0.1 to 1 µM | > 100000 nM | – | – | –
13 | O=C(O)C[C@@H]1C/C=C/CCC(=O)O[C@H](c2ccccc2)CNC1=O [GC, 2-((2R,6S,E)-5,12-dioxo-2-phenyl-1-oxa-4-azacyclododec-8-en-6-yl)acetic acid] | > 100 µM | > 100 µM | – | – | – | –
14 | CN1C(=O)CC/C=C/C[C@@H](CC(=O)NCc2ccc(Cl)cc2)C(=O)OC[C@H]1c1ccccc1 [GH, N-(4-chlorobenzyl)-2-((3R,11S,E)-4-methyl-5,12-dioxo-3-phenyl-1-oxa-4-azacyclododec-8-en-11-yl)acetamide] | 1 to 100 µM | 1 to 100 µM | – | – | – | –

Now from value to molecule, other results behind:

Row | IC50 (Gli1) | Kd (ShhN protein; [2]) | IC50 (C3H10T1/2) | Kd (ShhN protein) | Compound | ring closure, yield of all isomers ([1]; from C=CC[C@@H](C)C(=O)OC[C@H](NC(=O)[C@@H](C)CC=C)c1ccccc1, Grubbs II, 20.0 mM, 25.0 °C, 12.0 h) | ring closure, yield of all isomers ([1]; from C=CC[C@@H](C)C(=O)OC[C@H](NC(=O)C(F)(F)CC=C)c1ccccc1)
15 | < 0.1 µM | 0.1 to 1 µM | – | – | O=C(C[C@@H]1C[C@@H]2O[C@H]2CCC(=O)O[C@H](c2ccccc2)CNC1=O)NCc1ccc(Cl)cc1 [Example BY, N-(4-chlorobenzyl)-2-((1S,6R,10S,12S)-4,9-dioxo-6-phenyl-5,13-dioxa-8-azabicyclo[10.1.0]tridecan-10-yl)acetamide] | – | –
16 | < 0.1 µM | 0.1 to 1 µM | < 100 nM | – | O=C1CC/C=C/C[C@@H](CC(=O)N2CCCCC2)C(=O)NC[C@@H](c2ccccc2)O1 [Example CQ, (2R,6S,E)-6-(2-oxo-2-(piperidin-1-yl)ethyl)-2-phenyl-1-oxa-4-azacyclododec-8-ene-5,12-dione] | – | –
17 | < 0.1 µM | < 0.1 µM | < 100 nM | – | O=C(C[C@@H]1C/C=C/CCC(=O)O[C@H](c2ccccc2)CNC1=O)N[C@@H]1CCCc2ccccc21 [Example CR, 2-((2R,6S,E)-5,12-dioxo-2-phenyl-1-oxa-4-azacyclododec-8-en-6-yl)-N—((R)-1,2,3,4-tetrahydronaphthalen-1-yl)acetamide] | – | –
18 | < 0.1 µM | < 0.1 µM | < 100 nM | – | O=C(C[C@@H]1C/C=C/CCC(=O)O[C@H](c2ccccc2)CNC1=O)NCCCC(F)(F)F [Example CT, 2-((2R,6S,E)-5,12-dioxo-2-phenyl-1-oxa-4-azacyclododec-8-en-6-yl)-N-(4,4,4-trifluorobutyl)acetamide] | – | –
19 | – | < 0.1 µM | 100 to 1000 nM | – | C[C@@H]1C/C=C/C[C@H](C)C(=O)N[C@H](c2ccccc2)COC1=O [Example D, (3R,6S,11R,E)-6,11-dimethyl-3-phenyl-1-oxa-4-azacyclododec-8-ene-5,12-dione] | 78% | –
20 | – | 0.1 to 1 µM | 1000 to 100000 nM | – | C[C@H]1C/C=C/C[C@@H](CC(=O)NCc2ccc(Cl)cc2)C(=O)OC[C@@H](c2ccccc2)NC1=O [Example DI, N-(4-chlorobenzyl)-2-((3R,6S,11S,E)-6-methyl-5,12-dioxo-3-phenyl-1-oxa-4-azacyclododec-8-en-11-yl)acetamide] | – | –
21 | – | < 0.1 µM | 1000 to 100000 nM | – | CCN(CC)C(=O)C[C@@H]1C/C=C/CCC(=O)O[C@H](c2ccccc2)CNC1=O [Example DO, 2-((2R,6S,E)-5,12-dioxo-2-phenyl-1-oxa-4-azacyclododec-8-en-6-yl)-N,N-diethylacetamide] | – | –
22 | 0.1 to 1 µM | 0.1 to 1 µM | – | – | O=C1CC/C=C/C[C@@H](CC(=O)N2CCN(c3ccccc3)CC2)C(=O)NC[C@@H](c2ccccc2)O1 [Example ES, (2R,6S,E)-6-(2-oxo-2-(4-phenylpiperazin-1-yl)ethyl)-2-phenyl-1-oxa-4-azacyclododec-8-ene-5,12-dione] | – | –
23 | – | 0.1 to 1 µM | 1000 to 100000 nM | – | O=C(C[C@@H]1C[C@H](O)[C@@H](O)CCC(=O)OC[C@@H]2CCCN2C1=O)NCc1ccc(Cl)cc1 [Example G, N-(4-chlorobenzyl)-2-((6S,7S,9S,14aS)-6,7-dihydroxy-3,10-dioxododecahydro-1H-pyrrolo[2,1-c][1,4]oxaazacyclododecin-9-yl)acetamide] | – | –
24 | – | < 0.1 µM | 1000 to 100000 nM | – | O=C1CC/C=C/C[C@@H](O)C(=O)OC[C@@H](c2ccccc2)N1 [Example H, (3R,11R,E)-11-hydroxy-3-phenyl-1-oxa-4-azacyclododec-8-ene-5,12-dione] | – | –
25 | – | < 0.1 µM | 1000 to 100000 nM | – | C[C@@H]1CCCCCC(=O)N[C@H](c2ccccc2)COC1=O [Example J, (3R,11R)-11-methyl-3-phenyl-1-oxa-4-azacyclododecane-5,12-dione] | – | –
26 | – | 0.1 to 1 µM | > 100000 nM | – | C[C@@H]1C/C=C/CC(F)(F)C(=O)N[C@H](c2ccccc2)COC1=O [Example K, (3R,11R,E)-6,6-difluoro-11-methyl-3-phenyl-1-oxa-4-azacyclododec-8-ene-5,12-dione] | – | 84%
